# Measurements as given in PubChem BioAssay (NCI).
# Several values for one entry are separate records, joined by “and”; a condition that tells them apart may be missing. Equal entries are not always repeated.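 Tested at 5 concentrations; 48 h exposure; 96-well plates; endpoints linearly interpolated, else capped at highest concentration. Abbreviation: GI50, concentration required for 50% inhibition of growth. TGI: concentration producing complete growth inhibition.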
# Experiments:
# Experiment in all cases: DTP human tumour cell line panel, 48 h
# SF-539 CNS = system: SF-539 CNS
# SF-295 CNS = system: SF-295 CNS
# KM12 colon = system: KM12 colon
# CCRF-CEM leukemia = system: CCRF-CEM leukemia
# U251 CNS = system: U251 CNS
# UACC-62 melanoma = system: UACC-62 melanoma
# K-562 leukemia = system: K-562 leukemia
# IGROV1 ovarian = system: IGROV1 ovarian
# SK-MEL-2 melanoma = system: SK-MEL-2 melanoma
# HL-60(TB) leukemia = system: HL-60(TB) leukemia
Compound,GI50 (SF-539 CNS),TGI (SF-539 CNS),GI50 (SF-295 CNS),TGI (SF-295 CNS),GI50 (KM12 colon),TGI (KM12 colon),GI50 (CCRF-CEM leukemia),TGI (CCRF-CEM leukemia),GI50 (U251 CNS),TGI (U251 CNS),GI50 (UACC-62 melanoma),TGI (UACC-62 melanoma),GI50 (K-562 leukemia),TGI (K-562 leukemia),GI50 (IGROV1 ovarian),TGI (IGROV1 ovarian),GI50 (SK-MEL-2 melanoma),TGI (SK-MEL-2 melanoma),GI50 (HL-60(TB) leukemia),TGI (HL-60(TB) leukemia)
CC1=C2C[C@H]3[C@@H](CC[C@@H]4CC(NS(C)(=O)=O)CC[C@@]43C)[C@@H]2CC[C@@]2(C1)O[C@@H]1C[C@H](C)CN[C@H]1[C@H]2C (stereo partly drawn),12.9 µM,25.9 µM,12.5 µM,26.1 µM,9.22 µM,22.6 µM,7.71 µM,28.4 µM,6.92 µM,20.8 µM,9.27 µM,21.8 µM,4.25 µM,31.6 µM,11.9 µM,26 µM,6.76 µM,15.4 µM,6.12 µM,21.4 µM
CCOC(=O)c1[nH]c(Br)c(-c2ccc(Br)cc2)c1Br,0.298 µM,1.85 µM and 0.858 µM,0.145 µM,0.763 µM and 0.815 µM,0.302 µM,16 µM,0.278 µM,1.11 µM,0.394 µM,3.55 µM and 1.93 µM,0.362 µM,–,0.193 µM,1.12 µM,0.851 µM,6.34 µM,–,2.53 µM,0.207 µM,0.596 µM
COC(=O)c1c2c(c(C)[n+]([O-])c1C)C(=O)C=C(NCc1ccc(F)c(Cl)c1)C2=O,0.604 µM,1.71 µM,0.231 µM,1.48 µM,0.0515 µM,1.58 µM,0.475 µM,4.71 µM,0.291 µM,1.44 µM,0.0325 µM,0.662 µM,0.0315 µM,5.27 µM,0.421 µM,1.91 µM,0.677 µM,2.5 µM,0.27 µM,0.895 µM
CC(=O)[CH-]C(=O)c1ccccc1.CC(=O)[CH-]C(=O)c1ccccc1.CC1(C)C2CCC1(C)C([O-])C2.CC1(C)C2CCC1(C)C([O-])C2.[Ti+4],17.8 µM,45.9 µM,38.9 µM,> 100 µM,34.8 µM,> 100 µM,25.1 µM,> 100 µM,40.4 µM,> 100 µM,16.7 µM,51.3 µM,30.5 µM,> 100 µM,25.3 µM,85.8 µM,14.2 µM,29.6 µM,23.8 µM,> 100 µM
BrC1=CC=C2NC=CC3=CC=NC1C32 (stereo not drawn),–,> 100 µM,–,> 100 µM,–,> 100 µM,–,28.6 µM,–,> 100 µM,–,22.6 µM,–,52.8 µM,–,> 100 µM,–,56.9 µM,–,12.1 µM
